Where two headings read alike, the source gives them in different places.
Columns and labels:
[1] = biological target: recombinant human mPGES-1 (Homo sapiens (Human), UniProt O14684); assay: mPGES-1 enzyme assay (HTRF detection of PGE2); type: biochemical
Experimental: Microsomes from Rosetta E. coli bacteria expressing recombinant human mPGES-1 can be derived as described below:
Inoculate 5 ml LB with Ampicilin (50 μg/ml) and Chloramphenicol (34 μg/ml) with bacteria from freeze culture. Incubate 8 h at 37° C. with 200 rpm. Thereafter, inoculate 500-1000 ml LB containing Amp and Chloro with the 5 ml on culture and grow to OD640 of 0.8-1.0. Chill the culture to +4° C. before induction. Induce the culture with IPTG at a final concentration of 400 μM. Express the protein at room temp 18-23° C. with 200 rpm shaking over night.
The following steps can be performed on the following day: • 1. Spin down the cells in 250 ml centrifuge flasks for 15 min at 7000 rpm (Beckmann Coulte Avanti J-E centrifuge) • 2. Dissolve the pellet from 250 ml culture in 12.5 ml homogenization buffer • 3. (15 mM Tris-HCL pH8, 1 mM EDTA pH8, […], 2.5 mM GSH, 1 Tablet Protease inhibitor per 50 ml buffer) • 4. Disintegrate the cells by sonication, 5×10 seconds at 48% amplitude of a 750 W sonifier • 5. Add 2.5 ml MgCl2 (100 mM) and DNase 12.5 μl (0.8 mg/ml) and incubate on ice for 30 min • 6. Spin down the bacteria debris and save the supernatant, 7000 rpm for 15 min • 7. Isolate the protein containing membranes in the supernatant by ultracentrifugation 120000×g for 2 hour at 4° C. (Sorvall T880 rotor). • 8. Discard the supernatant and dissolve the pellet in 20 mM Potassium phosphate buffer pH7.4 (KH2PO4 and K2HPO4) buffer by sonication (5×10 s, 30% of a 50 W sonifier) and aliquot the enzyme and store aliquots at −80° C.
Before each experiment is performed an aliquot of the enzyme is thawed and it can then be dissolved in 0.1 M Potassium phosphate buffer pH7.4 (KH2PO4 and K2HPO4) buffer containing 2.5 mM GSH.
The aim of this assay is to determine the affinity of a test compound for the mPGES-1 enzyme.
47 μl of recombinant human mPGES-1 (˜0.5 μg protein/well) containing microsomal suspension in a buffer containing GSH, (2.5 mmol/L L-Glutathione reduced, dissolved in 0.1 mol/L Phosphat Buffer pH 7.4) is dispensed in a 384-well plate and thereafter 1 μl of the test compound(s) is/are added and incubated for 25 minutes at room temperature. The enzyme reaction is started by the addition of 2 ul PGH2 (final conc 2 μM) disolved in water-free Diglyme. After 60 seconds the reaction is terminated by addition of a stop solution containing FeCl2 (10 μL 0.074 mol/l FeCl2). The samples are diluted between 1:25 in PBS (Phosphate Buffered Saline). 10 μl of the diluted samples are transferred to 384-well low volume plate. In order to quantify the amount of PGE2 that has been formed, a homogenous time resolved fluorescent (HTRF) detecting of PGE2 has been performed using a commercially available kit from Cisbio according to the manufactures recommendation. This HTRF-based assay has been described in detail (see: Goedken et al., J Biomol Screen, 2008, 13(7), 619-625). Briefly, the diluted samples are mixed with 5 μl PGE2-d2 conjugate and 5 μl anti-PGE2 cryptate conjugate. After an incubation period of the plates over night, the fluorescence is measured by the use of an appropriate microplate reader.
The fluorescence of Europium cryptate (maxex=307 nm, maxem=620 nm) and d2-PGE2 (maxex=620 nm, maxem=665 nm) are measured.
The extent of the specific HTRF is measured as a ratio of the emission intensity at 665 nm vs. that at 620 nm at an excitation puts of 320 nm. The quantification plate contains also wells with different concentrations of PGE2 as calibration curve for the calculation of the PGE2 concentrations from the HTRF ratio values.
From all mPGES enzyme assay the background is subtracted and the IC50 is calculated over a nonlinear regression with conventional software.

mPGES-1 in A549 cells = mPGES-1 in A549 cells (Homo sapiens (Human), UniProt O14684); assay: A549 cell-based assay (PGE2 formation, 50% human serum)
Sequence of mPGES-1 in A549 cells (O14684 whole entry): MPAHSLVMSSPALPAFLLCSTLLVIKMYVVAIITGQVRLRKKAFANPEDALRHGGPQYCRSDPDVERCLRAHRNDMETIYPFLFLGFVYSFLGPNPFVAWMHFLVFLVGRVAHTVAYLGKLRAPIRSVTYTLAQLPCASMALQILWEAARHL
Experimental: Although the enzymatic assay is a high throughput assay the disadvantage is that it uses a recombinant protein which is not in its natural environment. Accordingly a cellular assay was established in which a cell line of human origin (A549) expressing the mPGES-1 protein was used. In addition in order to mimic the situation in humans in which compounds can be bound to plasma proteins 50% human serum is added in the assay.
A549 cells (ATCC: CCL-185) are grown to about 90% confluence in F-12K Nutrient Mixture (Kaighn's Mod. Gibco) containing 10% FBS in a humified incubator at 37° C. and 5% CO2. Cells were detached using Trypsin-EDTA. A549 cells were seeded in a 384-well collagene plate at a density of 7000 cells/well (50 μl) in F-12 medium containing 1% Penicillin-Streptomycin and 50% human serum. The cells were allowed to attach for 3-4 h. After that the cells were incubated for 20-24 h in F-12k medium supplemented with 50% human serum, 1% Penicillin-Streptomycin and containing IL-1β at a final concentration of 5 ng/ml as well as 10 nM arachidonic acid in the presence of a vehicle or a test compound. The total volume is 100 μl.
Concentrations of PGE2 in the cell free medium (10 μl) were measured using a commercially available HTRF kit from Cisbio (as described above). The PGE2 formation in the absence of test compound was taken as 100%.
IC50 values were derived from at 6-8 point titrations using conventional software.

[2] = recombinant human mPGES-1 microsomes, PGH2 2 μM, 60 seconds, read-out: mPGES-1 inhibitory effect IC50 in the enzyme assay
[3] = IL-1β 5 ng/ml, 10 nM arachidonic acid, 20-24 h, read-out: mPGES-1 inhibitory effect IC50 in the cell assay

Sequence of recombinant human mPGES-1 (O14684 whole entry): as above

SMILES	IC50 [1, 2]	IC50 (mPGES-1 in A549 cells; [3])	IC50 ([1]; Table C comparison of selected benzimidazoles, read-out: Enzym IC50)	IC50 (mPGES-1 in A549 cells; Table C comparison of selected benzimidazoles, read-out: Cell IC50)
Cn1c(Nc2c(Cl)ccc(CNC(=O)C(C)(C)C)c2Cl)nc2cc(C(=O)NCC(F)(F)F)c(N3CCC(F)CC3)cc21 [Example 10]	2 nM	1 nM	–	–
COC1CN(c2cc3c(cc2C(=O)N[C@H]2CC[C@H](C(F)(F)F)CC2)nc(Nc2c(Cl)ccc(CNC(=O)C(C)(C)C)c2Cl)n3C)C1 [Example 98]	5 nM	5 nM	–	–
CC(C)C(NC(=O)c1cc2nc(Nc3c(Cl)ccc(CNC(=O)C(C)(C)C)c3Cl)n(C)c2cc1N1CCC(F)(F)C1)C(F)(F)F (stereo not drawn) [Example 49]	4 nM	4 nM	–	–
Cn1c(Nc2c(Cl)ccc(CNC(=O)C(C)(C)C)c2Cl)nc2cc(C(=O)Nc3ccc(Cl)c(F)c3)c(N3CC4CC4C3)cc21 (stereo not drawn) [Example 66]	3 nM	1.6 nM	–	–
Cn1c(Nc2c(Cl)ccc(CNC(=O)C(C)(C)F)c2Cl)nc2cc(C(=O)Nc3ccc(OC(F)(F)F)cc3)c(N3CCC(C(F)(F)F)CC3)cc21 [Example 237]	1.8 nM	< 1 nM	–	–
Cn1c(Nc2c(Cl)ccc(CNC(=O)C(C)(C)F)c2Cl)nc2cc(C(=O)Nc3cccc(C(F)(F)F)n3)c(N3CCC(C(F)(F)F)CC3)cc21 [Example 242]	1.7 nM	5 nM	–	–
Cn1c(Nc2c(Cl)ccc(CNC(=O)C(C)(C)C)c2Cl)nc2cc(C(=O)Nc3ccc(F)c(Cl)c3)c(N3CCC(C(F)(F)F)CC3)cc21 [Example 54, N-(3-Chloro-4-fluoro-phenyl)-2-{2,6-dichloro-3-[(2,2-dimethyl-propionylamino)-methyl]-phenylamino}-6-[4-trifluoromethyl-piperidinyl]-1-methyl-1H-benzimidazole-5-carboxylic acid amide]	2 nM	1.4 nM	–	–
Cn1c(Nc2cc(CNC(=O)C(C)(C)C)ccc2Cl)nc2cc(C(=O)Nc3ccc(Br)cc3)c(OCC(F)F)cc21 [[drawing 48] of WO 2010/100249, reference compound]	–	–	3 nM	10 nM
Cn1c(Nc2c(Cl)ccc(CNC(=O)C(C)(C)C)c2Cl)nc2cc(C(=O)N[C@H]3CC[C@H](C(F)(F)F)CC3)c(N3CC[C@H](F)C3)cc21 [Example 18]	3 nM	4 nM	–	–
Cn1c(Nc2c(Cl)ccc(CNC(=O)C(C)(C)C)c2Cl)nc2cc(C(=O)Nc3cccc(C(F)(F)F)n3)c(N3CC[C@@H](F)C3)cc21 [Example 245]	3.8 nM	2.4 nM	–	–
Cn1c(Nc2c(Cl)ccc(CNC(=O)C(C)(C)C)c2Cl)nc2cc(C(=O)N[C@H]3CC[C@H](C(F)(F)F)CC3)c(N3CC4CCCC4C3)cc21 (stereo partly drawn) [Example 101]	2 nM	1.5 nM	–	–

Further lines, with some results ahead:

IC50 [1, 2]	IC50 (mPGES-1 in A549 cells; [3])	SMILES	IC50 ([1]; Table C comparison of selected benzimidazoles, read-out: Enzym IC50)	IC50 (mPGES-1 in A549 cells; Table C comparison of selected benzimidazoles, read-out: Cell IC50)
2 nM	8 nM	Cn1c(Nc2c(Cl)ccc(CNC(=O)C(C)(C)C)c2Cl)nc2cc(C(=O)N[C@H]3CC[C@H](C(F)(F)F)CC3)c(N3CC(O)C3)cc21 [Example 87]	–	–
1 nM	1 nM	CC(C)(C)C(=O)NCc1ccc(Cl)c(Nc2nc3cc(C(=O)NCC(F)(F)C(F)(F)F)c(N4CCC(C(F)(F)F)CC4)cc3n2CC(F)F)c1Cl [Example 76]	–	–
5 nM	1.5 nM	Cn1c(Nc2c(Cl)ccc(CNC(=O)C(C)(C)C)c2Cl)nc2cc(C(=O)N[C@H]3CC[C@H](C(F)(F)F)CC3)c(N3CC4CC4C3)cc21 (stereo partly drawn) [Example 22]	–	–
2 nM	5 nM	Cn1c(Nc2c(Cl)ccc(CNC(=O)C(C)(C)F)c2Cl)nc2cc(C(=O)Nc3ccc(OC(F)(F)F)cc3)c(N3CCC(F)(F)CC3)cc21 [Example 140]	–	–
4.2 nM	27 nM	Cn1c(Nc2c(Cl)ccc(CNC(=O)[C@](C)(O)C(F)(F)F)c2Cl)nc2cc(C(=O)Nc3cccc(C(F)(F)F)n3)c(N3CCC(C(F)(F)F)CC3)cc21 [Example 244]	–	–
4 nM	23 nM	Cn1c(Nc2c(Cl)ccc(CNC(=O)C(C)(C)C)c2Cl)nc2cc(C(=O)Nc3ccc(F)c(Cl)c3)c(NC3CC(F)(F)C3)cc21 [Example 15]	–	–
5.7 nM	2.4 nM	Cn1c(Nc2c(Cl)ccc(CNC(=O)C(C)(C)F)c2Cl)nc2cc(C(=O)N[C@H]3CC[C@@H](C(F)(F)F)CC3)c(N3CCC(C(F)(F)F)CC3)cc21 [Example 253]	–	–
2 nM	1 nM	COC(C)CN(C)c1cc2c(cc1C(=O)N[C@H]1CC[C@H](C(F)(F)F)CC1)nc(Nc1c(Cl)ccc(CNC(=O)C(C)(C)C)c1Cl)n2C (stereo partly drawn) [Example 104]	–	–
2 nM	10 nM	CN(CCS(C)(=O)=O)c1cc2c(cc1C(=O)N[C@H]1CC[C@H](C(F)(F)F)CC1)nc(Nc1c(Cl)ccc(CNC(=O)C(C)(C)C)c1Cl)n2C [Example 105]	–	–
1 nM	5 nM	Cn1c(Nc2c(Cl)ccc(CNC(=O)C(C)(C)C)c2Cl)nc2cc(C(=O)N[C@H]3CC[C@H](C(F)(F)F)CC3)c(N3CC(OC(F)F)C3)cc21 [Example 99]	–	–
1 nM	2 nM	CC(NC(=O)c1cc2nc(Nc3c(Cl)ccc(CNC(=O)C(C)(C)C)c3Cl)n(C)c2cc1N1CCC(F)(F)C1)C(F)(F)F (stereo not drawn) [Example 39]	–	–
2 nM	8 nM	Cn1c(Nc2c(Cl)ccc(CNC(=O)C(C)(C)C)c2Cl)nc2cc(C(=O)NC(Cc3ccccc3)C(F)(F)F)c(N3CCC(F)(F)C3)cc21 (stereo not drawn) [Example 48]	–	–
4 nM	1 nM	CN(c1cc2c(cc1C(=O)NCC(F)(F)F)nc(Nc1c(Cl)ccc(CNC(=O)C(C)(C)C)c1Cl)n2C)C1CC1 [Example 23]	–	–
1 nM	1 nM	Cn1c(Nc2c(Cl)ccc(CNC(=O)C(C)(C)C)c2Cl)nc2cc(C(=O)Nc3ccc(F)c(Cl)c3)c(N3CC4CC4C3)cc21 (stereo not drawn) [Example 65]	–	–
2 nM	< 1 nM	Cn1c(Nc2c(Cl)ccc(CNC(=O)C(C)(C)C)c2Cl)nc2cc(C(=O)N[C@H]3CC[C@H](C(F)(F)F)CC3)c(N3CC4CCC(C3)O4)cc21 [Example 134]	–	–
3 nM	–	CC(C)(O)Cn1c(Nc2c(Cl)ccc(CNC(=O)C(C)(C)C)c2Cl)nc2cc(C(=O)N[C@H]3CC[C@H](C(F)(F)F)CC3)c(N3CCOCC3)cc21 [Example 168]	–	–
2 nM	–	Cn1c(Nc2c(Cl)ccc(CNC(=O)C(C)(C)C)c2Cl)nc2cc(C(=O)N[C@H]3CC[C@H](C(F)(F)F)CC3)c(N3CC4CCC3C4)cc21 (stereo partly drawn) [Example 127]	–	–
